{"source": "patent US7893066B2", "about": "“Pyridol[2,3-B]pyrazinones for use as stearoyl CoA desaturase inhibitors” (Gilead Palo Alto, Inc., priority 2006, dated 2011)"}
{"molecular_target": "T1, stearoyl-CoA desaturase (SCD) (Rattus norvegicus, UniProt P07308)", "T1 construct": "from tissue; host or cells: liver microsomes of male Sprague Dawley rats, with SCD induced by a carbohydrate-rich diet", "T1 sequence (P07308 1-358)": "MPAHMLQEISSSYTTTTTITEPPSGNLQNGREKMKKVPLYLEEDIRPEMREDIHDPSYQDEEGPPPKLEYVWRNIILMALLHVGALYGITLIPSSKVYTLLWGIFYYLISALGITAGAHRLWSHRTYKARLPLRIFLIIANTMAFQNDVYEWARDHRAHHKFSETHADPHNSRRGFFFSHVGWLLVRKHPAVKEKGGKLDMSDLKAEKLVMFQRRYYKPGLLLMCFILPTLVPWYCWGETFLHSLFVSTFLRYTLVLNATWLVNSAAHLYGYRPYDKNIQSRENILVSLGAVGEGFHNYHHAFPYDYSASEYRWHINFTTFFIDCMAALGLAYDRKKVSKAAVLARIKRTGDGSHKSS", "test": "SCD assay, rat liver microsomes with [3H]stearoyl CoA (adapted from Talamo and Bloch)", "assay_type": "biochemical", "settings": "second table, same SCD assay", "from_the_text": "The identification of compounds of the invention as SCD inhibitors was readily accomplished using the SCD enzyme and microsomal assay procedure described in Talamo and Bloch (1969) Analytical Biochemistry 29:300-304.\nThe rat liver microsomes were collected according to the procedure described in Ozols (1990) Methods Enzm, 182:225.\nMale Spraque Dawley Rats were placed on regimented fasting protocol for one week to stimulate SCD enzymatic activity. 48-hour periods were alternated between feeding and fasting to induce and down-regulate SCD activity with SCD activity being induced via carbohydrate rich diet prior to liver perfusion and collection.\nThe rats were anesthetized with Isoflurane inhalation anesthetic, the liver perfused with cold phosphate buffered saline (PBS), weighed, and chilled in cold homogenization buffer (250 mM sucrose, 10 mM Tris, 1 mM EDTA, pH 7.6.\nThe livers were finely minced and placed in homogenization tube. 40 mL of homogenization buffer was added to the homogenization tube and the liver homogenized and centrifuged in a pre-chilled SLA-600 TC at 800G rotor for 10 min at 4° C.\nFollowing centrifugation, the supernatant was collected and the pellet removed and discarded. This supernatant was then centrifuged at 10,000G for 35 minutes. Following centrifugation, the supernatant was collected and the pellet discarded. The supernatant was further centrifuged in a pre-chilled 45-Ti rotor at 130,000 G (41,000 RPM) for 90 minutes at 4° C.\nThe supernatant was then aspirated off and the collected microsomal pellet washed in 25 mL of Glycerol PBS (1×PBS 7.4, 20% Glycerol) and resuspended in 4-5 volumes of Glycerol PBS.\nThe protein concentration of the microsomal preparation was determined by BCA assay (Pierce) and the microsomes were aliquoted and stored at −80° C.\nBiobeads were ground to a smaller size in a mortar and pestle and filtered through 300 μM mesh and then resuspended in 3.6% TCA.\nSCD was determined in the desaturase assay buffer. This assay buffer contained 0.1 M Tris buffer, pH 7.2, 2 mM NADH, 4.8 mM ATP, 0.5 mM CoA, 4.8 mM MgCl2, and 0.1% BSA.\n1 μl of each compound of Formula I was added to an assay plate by a low volume (0.5-10 μL) multichannel pipette. A DMSO control was also prepared. The microsomes were quickly thawed and added to assay buffer so that a concentration of 1-0.1 mg/ml was achieved (0.5-0.05 mg/ml assay final). 50 μl of the microsome suspension in assay buffer was then added into each well in the compound assay plate, the plate was covered, and the microsomes preincubated with the compounds for 30-60 minutes on the orbital shaker, 50-75 rpm, at room temperature.\nAfter preincubation, the reaction was initiated by the addition of 50 μl of substrate solution (20 μM Stearoyl CoA, [3H]Stearoyl CoA, 74nCi) to the preincubated microsomes/compound suspensions in MilliQ (Millipore) H2O. The reaction mixtures were then incubated for 45 minutes on the orbital shaker at 50-75 rpm at room temperature.\nThe reaction was terminated by the addition of 10 μl of 21% trichloroacetic acid (TCA) to the reaction mixture followed incubation on the orbital shaker for 30 minutes at 50-75 rpm at room temperature followed by centrifugation for 5 minutes at 3700 rpm.\n50 μl of a 6% Bio-Bead suspension in H2O was added to the reaction mixture and the assay plate was sealed. The Bio-Bead mixture was incubated on the orbital shaker for 1 to 24 hours, 100-150 rpm at room temperature, and then the mixture was centrifuged at 2000g for 5 minutes to pellet the Bio-Beads.\n25 μl of the supernatant was harvested from each well and transferred to a detection plate. 100 μl of OptiPhase SuperMix scinitillation cocktail (containing sufficient NaOH to neutralize the TCA) was added and the solutions mixed by vigorous shaking (300-400 rpm) for 5 minutes at room temperature.", "units": {"IC50": "nM"}}
{"molecule": "2,3-dihydroxy-N-(2-(3-methyl-2-oxo-7-(3-(trifluoromethyl)benzylamino)quinoxalin-1(2H)-yl)ethyl)propanamide [compound 52]", "IC50": 360}
{"molecule": "3-(2-(4-(2-methoxyethoxy)phenyl)-3-oxo-6-(3-(trifluoromethyl)benzylamino)pyrido[2,3-b]pyrazin-4(3H)-yl)propanamide [compound 30]", "IC50": 190}
{"molecule": "3-(2-(4-ethylphenyl)-3-oxo-6-(3-(trifluoromethyl)benzylamino)pyrido[2,3-b]pyrazin-4(3H)-yl)propanamide [compound 29]", "IC50": 150}
{"molecule": "3-(2-(4-methoxyphenyl)-3-oxo-6-(3-(trifluoromethyl)benzylamino)pyrido[2,3-b]pyrazin-4(3H)-yl)propanamide [compound 6]", "IC50": 35}
{"molecule": "3-(3-oxo-2-(4-propylphenyl)-6-(3-(trifluoromethyl)benzylamino)pyrido[2,3-b]pyrazin-4(3H)-yl)propanamide [compound 31]", "IC50": 380}
{"molecule": "3-(3-oxo-6-(3-(trifluoromethyl)benzylamino)-2-(4-(trifluoromethyl)phenyl)pyrido[2,3-b]pyrazin-4(3H)-yl)propanamide [compound 38]", "IC50": 130}
{"molecule": "3-(6-(3,4-dichlorobenzylamino)-2-(4-methoxyphenyl)-3-oxopyrido[2,3-b]pyrazin-4(3H)-yl)-N-methylpropanamide [compound 12]", "IC50": 95}
{"molecule": "4-(2-(4-methoxyphenyl)-3-oxo-6-(3-(trifluoromethyl)benzylamino)pyrido[2,3-b]pyrazin-4(3H)-yl)butanamide [compound 35]", "IC50": 150}
{"molecule": "COc1ccc(-c2nc3ccc(NCc4ccc(Cl)c(Cl)c4)nc3n([C@H]3CCNC3)c2=O)cc1", "note": "[compound 2, (S)-6-(3,4-dichlorobenzylamino)-2-(4-methoxyphenyl)-4-(pyrrolidin-3-yl)pyrido[2,3-b]pyrazin-3(4H)-one]", "IC50": 1800}
{"molecule": "COc1ccc(-c2nc3ccc(NCc4cccc(C(F)(F)F)n4)nc3n(CCNC(C)=O)c2=O)cc1", "note": "[compound 3, N-(2-(2-(4-methoxyphenyl)-3-oxo-6-((6-(trifluoromethyl)pyridin-2-yl)methylamino)pyrido[2,3-b]pyrazin-4(3H)-yl)ethyl)acetamide]", "IC50": 10000}
{"molecule": "COc1ccc(-c2nc3ccc(NCc4cc(C(F)(F)F)ccn4)nc3n(CCNC(C)=O)c2=O)cc1", "note": "[compound 4, N-(2-(2-(4-methoxyphenyl)-3-oxo-6-((4-(trifluoromethyl)pyridin-2-yl)methylamino)pyrido[2,3-b]pyrazin-4(3H)-yl)ethyl)acetamide]", "IC50": 180}
{"molecule": "COc1ccc(-c2nc3ccc(NCc4ccc(Cl)c(Cl)c4)nc3n(C(C)CC(N)=O)c2=O)cc1", "note": "(stereo not drawn) [compound 5, 3-(6-(3,4-dichlorobenzylamino)-2-(4-methoxyphenyl)-3-oxopyrido[2,3-b]pyrazin-4(3H)-yl)butanamide]", "IC50": 53}
{"molecule": "CC(=O)NCCn1c(=O)cnc2ccc(NCc3cccc(C(F)(F)F)c3)nc21", "note": "[compound 7, N-(2-(3-oxo-6-(3-(trifluoromethyl)benzylamino)pyrido[2,3-b]pyrazin-4(3H)-yl)ethyl)acetamide]", "IC50": 220}
{"molecule": "COc1ccc(-c2nc3ccc(NCc4ccccc4)nc3n(CCNC(C)=O)c2=O)cc1", "note": "[compound 8, N-(2-(6-(benzylamino)-2-(4-methoxyphenyl)-3-oxopyrido[2,3-b]pyrazin-4(3H)-yl)ethyl)acetamide]", "IC50": 840}
{"molecule": "COc1ccc(-c2nc3ccc(NCc4cccnc4)nc3n(CCNC(C)=O)c2=O)cc1", "note": "[compound 9, N-(2-(2-(4-methoxyphenyl)-3-oxo-6-(pyridin-3-ylmethylamino)pyrido[2,3-b]pyrazin-4(3H)-yl)ethyl)acetamide]", "IC50": 30000}
{"molecule": "COc1ccc(-c2nc3ccc(NCc4cccc(F)c4)nc3n(CCNC(C)=O)c2=O)cc1", "note": "[compound 10, N-(2-(6-(3-fluorobenzylamino)-2-(4-methoxyphenyl)-3-oxopyrido[2,3-b]pyrazin-4(3H)-yl)ethyl)acetamide]", "IC50": 18000}
{"molecule": "COc1ccc(-c2nc3ccc(NCc4ccc(Cl)c(Cl)c4)nc3n(CCCC(N)=O)c2=O)cc1", "note": "[compound 11, 4-(6-(3,4-dichlorobenzylamino)-2-(4-methoxyphenyl)-3-oxopyrido[2,3-b]pyrazin-4(3H)-yl)butanamide]", "IC50": 150}
{"molecule": "CC(=O)NCCn1c(=O)cnc2ccc(NCc3ccc(Cl)c(Cl)c3)nc21", "note": "[compound 14, N-(2-(6-(3,4-dichlorobenzylamino)-3-oxopyrido[2,3-b]pyrazin-4(3H)-yl)ethyl)acetamide]", "IC50": 510}
{"molecule": "COC(=O)c1cccc(CNc2ccc3nc(-c4ccc(OC)cc4)c(=O)n(CCNC(C)=O)c3n2)c1", "note": "[compound 15, methyl 3-((4-(2-acetamidoethyl)-2-(4-methoxyphenyl)-3-oxo-3,4-dihydropyrido[2,3-b]pyrazin-6-ylamino)methyl)benzoate]", "IC50": 19000}
{"molecule": "CONC(=O)CCn1c(=O)c(-c2ccc(OC)cc2)nc2ccc(NCc3cccc(C(F)(F)F)c3)nc21", "note": "[compound 16, N-methoxy-3-(2-(4-methoxyphenyl)-3-oxo-6-(3-(trifluoromethyl)benzylamino)pyrido[2,3-b]pyrazin-4(3H)-yl)propanamide]", "IC50": 930}
{"molecule": "CCOC(=O)c1nc2ccc(NCc3cccc(C(F)(F)F)c3)nc2n(CCNC(C)=O)c1=O", "note": "[compound 17, ethyl 4-(2-acetamidoethyl)-3-oxo-6-(3-(trifluoromethyl)benzylamino)-3,4-dihydropyrido[2,3-b]pyrazine-2-carboxylate]", "IC50": 6700}
{"molecule": "COc1ccc(-c2nc3ccc(NCc4cccc(C)c4)nc3n(CCNC(C)=O)c2=O)cc1", "note": "[compound 18, N-(2-(2-(4-methoxyphenyl)-6-(3-methylbenzylamino)-3-oxopyrido[2,3-b]pyrazin-4(3H)-yl)ethyl)acetamide]", "IC50": 380}
{"molecule": "CNC(=O)CCn1c(=O)c(-c2ccc(OC)cc2)nc2ccc(NCc3cccc(C(F)(F)F)c3)nc21", "note": "[compound 19, 3-(2-(4-methoxyphenyl)-3-oxo-6-(3-(trifluoromethyl)benzylamino)pyrido[2,3-b]pyrazin-4(3H)-yl)-N-methylpropanamide]", "IC50": 360}
{"molecule": "COc1ccc(-c2nc3ccc(NCc4cccc(OC(F)(F)F)c4)nc3n(CCNC(C)=O)c2=O)cc1", "note": "[compound 20]", "IC50": 260}
{"molecule": "COc1ccc(-c2nc3ccc(NCc4cc(C(F)(F)F)ccc4F)nc3n(CCNC(C)=O)c2=O)cc1", "note": "[compound 21, N-(2-(6-(2-fluoro-5-(trifluoromethyl)benzylamino)-2-(4-methoxyphenyl)-3-oxopyrido[2,3-b]pyrazin-4(3H)-yl)ethyl)acetamide]", "IC50": 1500}
{"molecule": "COCCOc1ccc(-c2nc3ccc(NCc4cccc(C(F)(F)F)c4)nc3n(CCNC(C)=O)c2=O)cc1", "note": "[compound 23, N-(2-(2-(4-(2-methoxyethoxy)phenyl)-3-oxo-6-(3-(trifluoromethyl)benzylamino)pyrido[2,3-b]pyrazin-4(3H)-yl)ethyl)acetamide]", "IC50": 230}
{"molecule": "CCCc1ccc(-c2nc3ccc(NCc4cccc(C(F)(F)F)c4)nc3n(CCNC(C)=O)c2=O)cc1", "note": "[compound 24, N-(2-(3-oxo-2-(4-propylphenyl)-6-(3-(trifluoromethyl)benzylamino)pyrido[2,3-b]pyrazin-4(3H)-yl)ethyl)acetamide]", "IC50": 100}
